Source: patent US20160106802A1, “METHODS OF DIAGNOSING AND TREATING ASTHMA” (Alba Therapeutics Corporation, priority 2006, published 2016)
“Also recorded” adds a separate entry of the source. Ends that are not written are not given here.

Tested on: zonulin receptor
Test: In situ immunofluorescence microscopy of lung tissue sections with FITC-labeled peptides
Type: binding
Settings: mouse lung sections (4 μm, frozen blocks) incubated with FITC-labeled peptide; FIG. 1
Method: In situ immunofluorescence microscopy was used to establish the distribution of the zonulin receptor within the respiratory tract. Lung tissue sections (4 μm) made from frozen blocks were placed immediately on plain uncoated slides and incubated with either FITC-labeled FZI/0 (the zonulin synthetic peptide inhibitor that specifically binds to the zonulin receptor described in U.S. Pat. No. 6,458,925, Gly-Gly-Val-Leu-Val-Gln-Pro-Gly SEQ ID NO: 15) or FITC-labeled FZI/1 (a scrambled peptide described in U.S. Pat. No. 6,458,925, Val-Gly-Val-Leu-Gly-Arg-Pro-Gly SEQ ID NO: 25) The results are shown in FIG. 1.

Q: For GGVLVQPG [FZI/0], which “immunofluorescence signal of FITC-labeled peptide bound to lung tissue sections” value is on record?
A: Clusters of immunofluorescent FZI/0 particles were visualized; also recorded: Cluster of immunofluorescence FZI/0 particles were visualized

Q: With “VGVLGRPG [FZI/1, a scrambled peptide described in U.S. Pat. No. 6,458,925, reference compound]” as the sequence, how does the “immunofluorescence signal of FITC-labeled peptide bound to lung tissue sections” value read?
A: no signal was detected
